Assay results published in PMC7553701 (Toxicological Sciences, 2020).
Converted amounts (≈) assume the structure as drawn. “Also recorded” adds a separate entry of the source. Like-named read-outs stand apart in the source and are kept apart here. Values belong to the molecule of their own block, whether it stands above or below them.

Columns and labels:
rat [1] = assay: Histopathology, clinical chemistry and tolerability in short-term rat studies; format: in vivo; conditions: oral gavage, high dose 500–750 mkd
[2] = system: NRF2/Keap1 and NRF1 coregulated gene network in rat liver; conditions: for rat BA-LRA result: in vivo rat liver, threshold 0.22; for maximum daily dose (boundary) predicted from BA-LRA score: clinical daily dose; for BA-LRA score / BA-LRA outcome, day 1 single dose study: rat; for BA-LRA outcome, day 1 single dose study: day 1 single dose sample collection
patients = conditions: ref Hargreaves and Olesen, 2019, cited from earlier work
Cyp3A4 = Cyp3A4 (Homo sapiens, UniProt P08684, DEL224-224/T224I/V225I); assay: Cyp3A4 degradation in HEK Cyp3A4 cell line; format: cell-based; conditions: up to 90 µM
human HepatoPac [3] = conditions: ref Hafey et al., unpublished data, cited from earlier work
Biliary excretion = format: cell-based; conditions: human HepatoPac cultures, plasma or biological fluid
rat HepatoPac = assay: Urea synthesis in rat HepatoPac cultures; format: cell-based; conditions: 9 days
NHP = assay: 9-month NHP toxicology study; format: in vivo; conditions: 9 months, highest dose tested
NRF2 = assay: HEK cell CYP450-dependent versus -independent NRF2 stabilization assay; format: cell-based, human; conditions: for NRF2 activation: HEK Cyp3A4 and parental cell lines, up to 90 µM; for NRF2 protein level in noninduced cells: HEK293/CYP cells without Dox; for NRF2 protein level in cells expressing other CYP isoforms: HEK293 cells expressing the other 7 CYP isoforms; for NRF2 activation with and without CYP450 expression: HEK-CYP cell lines, [− Dox] and [+ Dox]
[4] = Clinical studies: liver safety and exposure; conditions: human, in vivo, 900 mg
rat [5] = assay: 6-month rat toxicology study; format: in vivo; conditions: 6 months, highest dose tested
HepG2 = conditions: 24 h, HepG2 glucose-galactose shift; ref Xu et al., 2019; cited from earlier work
Dog = assay: 1-month dog toxicology study; format: in vivo; conditions: high dose with excessive body weight loss
human HepatoPac [6] = assay: Urea synthesis in human HepatoPac cultures; format: cell-based; conditions: 9 days of exposure
Mouse = assay: 6-month mouse toxicology study; format: in vivo; conditions: 6 months, highest dose tested
human hepatocytes = assay: Covalent protein binding; format: in vitro ADME; conditions: radiolabeled drug
rat liver = assay: BA-LRA score calculated from Open TG-GATEs Affymetrix GeneChip data; format: in vivo; conditions: 600 mkd, 24 h, Affymetrix platform; ref Igarashi et al., 2015
[7] = system: rat hepatocyte micropatterned coculture model (HepatoPac); assay: In vitro BA-LRA in rat HepatoPac; format: cell-based; conditions: 9 days, at 50 µM
human HepatoPac [8] = assay: In vitro BA-LRA in human HepatoPac; format: cell-based; conditions: at 50 µM
[9] = system: bile salt export pump (BSEP); assay: Bile salt export pump; format: biochemical; conditions: modeling a dose of 280 mg; ref Hafey et al., unpublished data
BSEP = conditions: siRNA BSEP KD rat; ref Li et al., 2019; cited from earlier work

SMILES: Cc1cnc(NC(=O)C2=C(O)c3ccccc3S(=O)(=O)N2C)s1 [Meloxicam]
tolerability of high repeat daily doses (rat [1]): not tolerated

SMILES: C/N=C(\S)NCCSCc1[nH]cnc1C [Metiamide]
rat BA-LRA result [2]: did not show a significant rat liver BA-LRA signal

SMILES: C[C@@H]1[C@H](c2ccccc2)C[C@H](NC(=O)c2cnc3c(c2)C[C@@]2(C3)C(=O)Nc3ncccc32)C(=O)N1CC(F)(F)F [Ubrogepant]
clinical liver safety profile (patients; clinical trials): superior clinical liver safety profile

SMILES: Nc1c2c(nc3ccccc13)CCCC2 [Tacrine]
tolerability of high repeat daily doses (rat [1]): not tolerated

maximum daily dose (boundary) predicted from BA-LRA score [2]: 300 mg
BA-LRA score ([2]; 600 mkd × 4-day, median signature score): 0.34
solubility (Biliary excretion): 50 µM (≈ 27.9 µg/mL)
urea synthesis (human HepatoPac [6]): lack of urea synthesis inhibition
SMILES: O=C(CN1C(=O)C2(CCCC2)NC[C@H]1c1cc(F)cc(F)c1)Nc1ccc2c(c1)C[C@@]1(C2)C(=O)Nc2ncccc21 [MK-3207]
Cyp3A4 degradation (Cyp3A4): clear dose-dependent effect on Cyp3A4 degradation
incidence of subjects with ALT rises > 3-fold ULN (patients; Phase 2, 2 weeks, daily doses ≤ 100 mg (2/197)): 1%
patients with > 20-fold ALT rises (patients; among the 5 patients dosed above 500 mg daily): 3
biliary excretion of taurocholic acid (human HepatoPac [3]; 50 µM): no significant impact
urea (mito fx) / urea synthesis (rat HepatoPac): lack of urea synthesis inhibition; also recorded: no effect on urea to 80 µM
Liver Findings (NHP): No liver safety signal at Highest Dose tested
NRF2 activation (NRF2): no CYP-dependent effect on NRF2 activation
AUC [4]: 60 µM·h
Liver Findings (rat [5]): No liver safety signal at Highest Dose tested
mitochondrial toxicity (HepG2): No evidence for mitochondrial toxicity
Liver Findings (Dog): Slight periportal vacuolation
Liver Findings (Mouse): No liver safety signal at Highest Dose tested

covalent protein binding in human hepatocytes (human hepatocytes): high CPB
SMILES: CN/C(=N/CCSCc1nc[nH]c1C)NC#N [Cimetidine]

covalent protein binding in human hepatocytes (human hepatocytes): high CPB
SMILES: CNS(=O)(=O)Cc1ccc2[nH]cc(CCN(C)C)c2c1 [Sumatriptan]

BA-LRA score ([2]; at 24 h (Figs. 2 and 3)): 0.54
BA-LRA score calculated from TG-GATEs data (rat liver): 0.32
NRF2 protein level in noninduced cells (NRF2; 6 h): not apparent
NRF2 protein level in cells expressing other CYP isoforms (NRF2): not apparent
SMILES: CC(=O)Nc1ccc(O)cc1 [Acetaminophen]

SMILES: CC1(C)CC[C@]2(C(=O)O)CC[C@]3(C)[C@H](C(=O)C=C4[C@@]5(C)C=C(C#N)C(=O)C(C)(C)[C@@H]5CC[C@]43C)[C@@H]2C1 [Bardoxolone]
NRF2 activation with and without CYP450 expression (NRF2): induced NRF2 activation in a similar fashion under both [− Dox] and [+ Dox] conditions

SMILES: Cc1cc2c(s1)Nc1ccccc1N=C2N1CCN(C)CC1 [Olanzapine]
BA-LRA outcome, day 1 single dose study [2]: InsfT
tolerability of high repeat daily doses (rat [1]): not tolerated

rat BA-LRA result [2]: significant BA-LRA signal
BA-LRA outcome, day 1 single dose study [2]: BA-LRA positive
SMILES: CN1CCN(C2=Nc3cc(Cl)ccc3Nc3ccccc32)CC1 [Clozapine]

NRF2 protein level in noninduced cells (NRF2; 6 h): not in noninduced cells
NRF2 protein level in cells expressing other CYP isoforms (NRF2): no effects on the NRF2 protein level
concentration at which NRF2 activation begins (NRF2; induced [+Dox] CYP2C9 expressing HEK293 cells, 6 h): approximately 25 µM
SMILES: Clc1ccccc1CN1CCc2sccc2C1 [Ticlopidine]

NRF2 activation with and without CYP450 expression (NRF2): gave similar results
SMILES: COc1ccc2[nH]c([S+]([O-])Cc3ncc(C)c(OC)c3C)nc2c1 (stereo not drawn) [Omeprazole]

NRF2 activation with and without CYP450 expression (NRF2): gave similar results
SMILES: Cc1c(-c2cnccn2)ssc1=S [Oltipraz, oltipraz]

SMILES: C[S+]([O-])CCCCN=C=S (stereo not drawn) [Sulforaphane, sulforaphane]
NRF2 activation with and without CYP450 expression (NRF2): gave similar results

SMILES: Clc1ccccc1C(c1ccccc1)(c1ccccc1)n1ccnc1 [Clotrimazole]
tolerability of high repeat daily doses (rat [1]): not tolerated

SMILES: O=C(N[C@@H]1CC[C@@H](c2cccc(F)c2F)CN(CC(F)(F)F)C1=O)N1CCC(n2c(=O)[nH]c3ncccc32)CC1 [Telcagepant]
maximum daily dose (boundary) predicted from BA-LRA score [2]: < 600 mg
BA-LRA score ([2]; 400 mkd × 4 days, peak score): 0.30
Cyp3A4 degradation (Cyp3A4): no effect was seen
BA-LRA (in vitro) [7]: well exceeding the threshold of the assay
BA-LRA (in vitro) ([7]; listed as MK-0974/Telcagepant): > 0.2
Biliary Excretion Index IC50 (human HepatoPac [3]): 16 µM
tolerability of high repeat daily doses (rat [1]): poorly tolerated
urea (mito fx) / urea synthesis (rat HepatoPac): no inhibition of urea synthesis
urea (mito fx) / urea synthesis (rat HepatoPac; listed as MK-0974/Telcagepant): no effect on urea to 100 µM
covalent protein binding in human hepatocytes (human hepatocytes): high covalent binding
Liver Findings (NHP): No liver safety signal at Highest Dose tested
in vitro BA-LRA transcriptional response to CRM responsive genes (human HepatoPac [8]): well exceeding the threshold of the assay
NRF2 activation (NRF2): no effect was seen
Liver Findings (rat [5]): No liver safety signal at Highest Dose tested
mitochondrial toxicity (HepG2): unlikely mechanism of concern
exposure multiple of BSEP IC50 above calculated free unbound liver inlet Cmax [9]: 17.5 fold
synergy expected for a BSEP inhibitor (BSEP): no evidence for synergy
urea synthesis (human HepatoPac [6]): no inhibition of urea synthesis
Liver Findings (Mouse): No liver safety signal at Highest Dose tested
